{"source": "patent US5618837A", "about": "“PDGF antagonists III” (ZymoGenetics, Inc., priority 1995, dated 1997)", "molecules": {"B1": {"name": "PDGF-BB: platelet derived growth factor (protein, UniProt P01127 82-190, looked up)", "Platelet-derived growth …": "SLGSLTIAEPAMIAECKTRTEVFEISRRLIDRTNANFLVWPPCVEVQRCSGCCNNRNVQCRPTQVQLRPVQVRKIEIVRKKPIFKKATVTLEDHLACKCETVAAARPVT"}}, "key": {"[1]": {"test_system": "PDGF-BB mitogenic activity on baboon smooth muscle cells", "test": "Inhibition of PDGF-BB mitogenic activity on baboon smooth muscle cells ([3H] thymidine incorporation)", "type": "cell-based", "method": "Brefeldin A was analyzed for the ability to inhibit the mitogenic activity of PDGF on baboon smooth muscle cells. All mitogenesis assays performed on baboon vascular smooth muscle cells (BVSMCs) were done on primary cultures of cells between passages 13 and 20 in culture. The initial cultures were established from outgrowth of aortic tissue explants. Baboon smooth muscle cells were plated at approximately 20,000 cells per well, in DMEM supplemented with 10% fetal calf serum, into 24-well culture dishes. One day prior to use the culture media was removed, and 1 ml of Mito Media (Table 3) was added to each well to allow the cells to become quiescent. At the time of the experiment the cells were stimulated with PDGF-BB. […] 20X stock solutions were made for each of the PDGF concentrations by dilution in 10 mM acetic acid containing 0.25% albumin, and 50 μl of PDGF or dilution vehicle alone was added to the culture wells. To analyze the activity of Brefeldin A to neutralize PDGF-BB mitogenic activity, 1 ng/ml of PDGF was added to wells along with dilutions of Brefeldin A. The cells were incubated with the test samples for approximately 20 hours at 37° C. Fifty μl of a 20x stock solution was then added to each well to give a final concentration of 1 μCi/ml. The cells were incubated for 4 hours at 37° C., washed with PBS, then harvested with trypsin and counted for [^3 H] thymidine incorporation in a Wallac (Turku, Finland) Betaplate™ liquid scintillation counter. […] As part of this same experiment, the inhibitory potency of Brefeldin A was analyzed in the presence of heparin to determine if heparin is able to act in a combinatorial manner with Brefeldin A for inhibiting PDGF-BB mitogenic activity. Baboon smooth muscle cells were incubated in Brefeldin A with 1 ng/ml PDGF-BB in the presence of 0.5 U/ml of unfractionated heparin. The cells were pulse-labeled with [^3 H] thymidine as described above, and the level of [^3 H] thymidine incorporation was determined."}, "[2]": {"test_system": "EGF-induced SRE-luciferase expression in SWISS3T3 cells", "test": "SRE-luciferase reporter antagonist assay, EGF induction", "type": "cell-based", "conditions": "4.5 ng/ml EGF; SWISS3T3/KZ67-G1-6 cells; 5 hours at 37° C.", "method": "(§1) Initial characterization of Brefeldin A as a non-peptide PDGF antagonist was made possible through an SRE-Luciferase high through-put assay system which identifies substances that are able to block expression of a serum response element (SRE)-luciferase reporter gene expressed in SWISS3T3 cells. […] The degree of antagonist specificity can be determined by comparing the resultant signal for the three growth factors (PDGF, bFGF, and EGF). […]\n(§2) Folowing induction, luciferase activity was measured using a Promega luciferase assay kit (E1500; Promega Corp., Madison, Wis.) according to the assay kit protocol. […] The amount of luminescence (relative light units, RLU) was determined following a 1 second mix and a 1-3 integration of signal. Basal (uninduced) luciferase signal was substracted from all measurements,and the luciferase signal induced by test samples was expressed as a percentage of the signal from the controls. […]"}, "[3]": {"test_system": "125I-PDGF-BB binding to rat SMCs", "test": "Inhibition of 125I-PDGF-BB binding to rat smooth muscle cells", "conditions": "4° C.; for % Control Binding: negative control = 100, 90 min; for 125I PDGF-BB Bound (CPM): specific cpm, nonspecific subtracted, negative control 10006", "method": "Brefeldin A was analyzed for the ability to inhibit ^125 I-PDGF-BB binding to monolayers of rat SMCs. SMCs were plated at approximately 20,000 cells/well in 24-well culture dishes. The cells were used for assay 2-7 days after plating. The test compound was diluted in binding media (500 ml Hams F-12 (Gibco BRL), 12 ml 1M Hepes pH 7.4, 5 ml 100X PSN, 1 gm rabbit serum albumin (Sigma Chemical Co., St. Louis, Mo.) to the concentrations shown in Table 2, then added to the SMCs (1 ml/well) in triplicate. To the wells was then added 50 μl of a ^125 I-PDGF-BB binding stock solution. Binding media alone was used as the negative control, and the addition of 200 ng/ml of PDGF-BB was used to determine nonspecific binding for ^125 I-PDGF-BB. The cells were incubated for approximately 11/2 hours at 4° C., then washed with binding media to remove unbound ligand. The cells were then incubated with extraction buffer (20 mM Tris-HCl pH 8.0, 100 mM NaCl, 1 mM EDTA, 0.5% sodium deoxycholate, 10 mM NaI, 1% bovine serum albumin), and the extracts were harvested and counted in a gamma counter. The data are presented as specific cpm bound for ^125 I-PDGF-BB. Nonspecific binding, determined by the addition of 200 ng/ml of unlabeled PDGF-BB, was 853 cpm, and has been subtracted from the data presented."}, "[4]": {"test_system": "bFGF-induced SRE-luciferase expression in SWISS3T3 cells", "test": "SRE-luciferase reporter antagonist assay, bFGF induction", "type": "cell-based", "conditions": "2.0 ng/ml bFGF; SWISS3T3/KZ67-G1-6 cells; 5 hours at 37° C.", "method": "as §1, §2"}}}
{"molecule": "CC1CCCC=CC2CC(O)CC2C(O)C=CC(=O)O1", "note": "(centres unmarked) [Brefeldin A, 1,6,7,8,9,11a,12,13,14,14a-Decahydro-1,13-dihydroxy-6-methyl-4H-cyclopent[f]oxacyclotridecin-4-one]", "values": [{"measurement": "PDGF-BB mitogenic activity inhibition (in words)", "setting": "[1]; 1 ng/ml PDGF-BB", "result": "inhibited by Brefeldin A in a dose dependent fashion"}, {"measurement": "3H Thymidine (CPM Incorporated), (+) 0.5 U/ml Heparin", "setting": "[1]; 12.5 nM, 1 ng/ml PDGF-BB", "result": 854, "unit": "CPM"}, {"measurement": "3H Thymidine (CPM Incorporated), (-) Heparin", "setting": "[1]; 12.5 nM, 1 ng/ml PDGF-BB", "result": 1293, "unit": "CPM"}, {"measurement": "3H Thymidine (CPM Incorporated), (+) 0.5 U/ml Heparin", "setting": "[1]; 25 nM, 1 ng/ml PDGF-BB", "result": 684, "unit": "CPM"}, {"measurement": "3H Thymidine (CPM Incorporated), (-) Heparin", "setting": "[1]; 25 nM, 1 ng/ml PDGF-BB", "result": 798, "unit": "CPM"}, {"measurement": "3H Thymidine (CPM Incorporated), (+) 0.5 U/ml Heparin", "setting": "[1]; 50 nM, 1 ng/ml PDGF-BB", "result": 44, "unit": "CPM"}, {"measurement": "3H Thymidine (CPM Incorporated), (-) Heparin", "setting": "[1]; 50 nM, 1 ng/ml PDGF-BB", "result": 36, "unit": "CPM"}, {"measurement": "3H Thymidine (CPM Incorporated), (+) 0.5 U/ml Heparin", "setting": "[1]; 100 nM, 1 ng/ml PDGF-BB", "result": 31, "unit": "CPM"}, {"measurement": "3H Thymidine (CPM Incorporated), (-) Heparin", "setting": "[1]; 100 nM, 1 ng/ml PDGF-BB", "result": 39, "unit": "CPM"}, {"measurement": "IC50", "setting": "[1]; Papio anubis, 1 ng/ml PDGF-BB, baboon smooth muscle cells, read-out: ED50 for the inhibition of PDGF-BB mitogenic activity", "result": "~25", "unit": "nM"}, {"measurement": "doses inhibiting PDGF-BB mitogenic activity versus doses required to inhibit PDGF binding to rat SMCs", "setting": "[1]; baboon SMC mitogenesis vs rat SMC binding, fold lower", "result": 1000, "unit": "fold"}, {"measurement": "inhibition of [3H] thymidine on addition of heparin (in words)", "setting": "[1]; with 0.5 U/ml unfractionated heparin, 1 ng/ml PDGF-BB, versus Brefeldin A alone", "result": "further inhibition of [^3 H] thymidine above that achieved by Brefeldin A alone"}, {"measurement": "EGF EC50", "setting": "[2]", "result": "No activity"}, {"measurement": "% Control Binding", "setting": "[3]; 50 μM", "result": 92, "unit": "%"}, {"measurement": "125I PDGF-BB Bound (CPM)", "setting": "[3]; 50 μM", "result": 9199, "unit": "CPM"}, {"measurement": "% Control Binding", "setting": "[3]; 100 μM", "result": 89, "unit": "%"}, {"measurement": "125I PDGF-BB Bound (CPM)", "setting": "[3]; 100 μM", "result": 8879, "unit": "CPM"}, {"measurement": "bFGF EC50", "setting": "[4]", "result": "No activity"}]}
{"molecule": "B1", "values": [{"measurement": "3H Thymidine (CPM Incorporated), (-) Heparin", "setting": "[1]; PDGF-BB standard curve, 0.062 ng/ml", "result": 120, "unit": "CPM"}, {"measurement": "3H Thymidine (CPM Incorporated), (-) Heparin", "setting": "[1]; PDGF-BB standard curve, 0.125 ng/ml", "result": 226, "unit": "CPM"}, {"measurement": "3H Thymidine (CPM Incorporated), (-) Heparin", "setting": "[1]; PDGF-BB standard curve, 0.25 ng/ml", "result": 392, "unit": "CPM"}, {"measurement": "3H Thymidine (CPM Incorporated), (-) Heparin", "setting": "[1]; PDGF-BB standard curve, 0.5 ng/ml, 0 ng/ml gives 74", "result": 959, "unit": "CPM"}, {"measurement": "3H Thymidine (CPM Incorporated), (-) Heparin", "setting": "[1]; PDGF-BB standard curve, 1 ng/ml", "result": 1701, "unit": "CPM"}]}
